Reference: US20100068766A1, “COMPOSITION FOR CLEAVING AND/OR CONNECTING SINGLE STRAND DNA” (WASEDA UNIVERSITY, priority 2007, published 2010)

What was measured:
Ev1 protein [1] = biological target: T1, Ev1 protein (Homo sapiens, UniProt Q9UI08); experiment: Influence of low molecular weight compounds on single-stranded DNA catenation activity of the Ev1 protein; format: biochemical; conditions: compound 1, 5, 10 and 20 μM; 4 μM Ev1 protein; 20 μM φ×174 single-stranded DNA; 37° C., 1 hour
T1 construct: in accordance with the protocols used in purification of the entire-length Ev1 protein; 6xHis (N, cleaved yes); made in house; host or cells: E. coli BL21 (DE3) codon plus-RP, pET15b vector
T1 sequence (Q9UI08 1-418 isoform Q9UI08-2): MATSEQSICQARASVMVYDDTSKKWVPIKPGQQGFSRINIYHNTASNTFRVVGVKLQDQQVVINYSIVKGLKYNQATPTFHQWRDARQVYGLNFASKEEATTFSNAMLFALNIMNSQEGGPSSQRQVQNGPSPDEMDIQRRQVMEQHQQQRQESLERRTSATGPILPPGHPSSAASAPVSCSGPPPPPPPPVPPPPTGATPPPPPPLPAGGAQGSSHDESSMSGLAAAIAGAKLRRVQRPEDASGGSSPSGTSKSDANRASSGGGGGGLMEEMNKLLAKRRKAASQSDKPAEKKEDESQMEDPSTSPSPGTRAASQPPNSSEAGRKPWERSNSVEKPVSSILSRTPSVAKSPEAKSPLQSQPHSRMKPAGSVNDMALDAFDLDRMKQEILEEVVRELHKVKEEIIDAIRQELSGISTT
Method: With regard to the influence of each compound on the catenation activity of the Ev1 protein (FIGS. 14a, 15a, 16, 17a, and 18a), each compound in final concentrations of 1, 5, 10, and 20 μM, a φ×174 single-stranded DNA in a final concentration of 20 μM, and an Ev1 protein in a final concentration of 4 μM were added to 10 μl of a reaction solution (20 mM HEPES, 1 mM DTT, 100 μg/ml BSA, and 1 mM MgCl2). The obtained mixture was reacted at 37° C. for 1 hour. After completion of the reaction, 2 μl of a PK solution (0.2% SDS and 1.3 mg/ml proteinase K) was added to the reaction solution, and the obtained mixture was then reacted at 37° C. for 15 minutes. Thereafter, the reaction product was electrophoresed on a 0.8% HGT agarose gel, and DNA was then detected with SYBR Gold.

Ev1 protein [2] = biological target: T1, Ev1 protein; experiment: Gel shift method, single-stranded DNA binding activity of the Ev1 protein in the presence of compounds; conditions: compound 1, 5, 10 and 20 μM; 0.3 μM Ev1 protein; 20 μM φ×174 single-stranded DNA; 37° C., 15 minutes
Method: Moreover, in a gel shift method involving single-stranded DNA binding activity (FIGS. 14b, 15b, 16b, 17b, and 18b), each compound in final concentrations of 1, 5, 10, and 20 μM, a φ×174 single-stranded DNA in a final concentration of 20 μM, and an Ev1 protein in a final concentration of 0.3 μM were added to 20 μl of a reaction solution (20 mM HEPES, 1 mM DTT, 100 μg/ml BSA, and 1 mM MgCl2). The obtained mixture was reacted at 37° C. for 15 minutes. Thereafter, the reaction product was electrophoresed on a 0.8% HGT agarose gel, and DNA was then detected with ethidium bromide.

Molecule | effect on single-stranded DNA catenation activity of the Ev1 protein (Ev1 protein [1]) | influence on activity of the Ev1 protein to bind to single-stranded DNA (gel shift) (Ev1 protein [2])
β-rubromycin | inhibits the single-stranded DNA catenation activity of the Ev1 protein | changes the binding manner of the Ev1 protein that binds to a single-stranded DNA
Nc1ccc2c(=S)c3ccccc3[nH]c2c1 [3-ATA, 3-amino-9-thio(10H)-acridone] | inhibits the single-stranded DNA catenation activity of the Ev1 protein | does not change the single-stranded DNA binding activity of the Ev1 protein
Cc1cc(N)c2ccccc2[n+]1CCCCCCCCCC[n+]1c(C)cc(N)c2ccccc21 [dequalinium, dequalinium chloride] | inhibits the single-stranded DNA catenation activity of the Ev1 protein | changes the binding manner of the Ev1 protein that binds to a single-stranded DNA
O=S(=O)(O)c1cc(N=C=S)ccc1C=Cc1ccc(N=C=S)cc1S(=O)(=O)O [DIDS] | inhibits the single-stranded DNA catenation activity of the Ev1 protein | inhibits the single-stranded DNA binding activity of the Ev1 protein
CC[C@@]1(O)C[C@H](O[C@H]2C[C@H](N(C)C)[C@H](O[C@H]3C[C@H](O)[C@H](O[C@H]4CCC(=O)[C@H](C)O4)[C@H](C)O3)[C@H](C)O2)c2c(cc3c(c2O)C(=O)c2c(O)cccc2C3=O)[C@H]1C(=O)OC [aclarubicin] | inhibits the activity of an Ev1 protein to catenate single-stranded DNA molecules | does not change the activity of the Ev1 protein to bind to circular single-stranded DNA
